Experimental data reported in patent US6310247A, “7-aryl-6(Z)-heptatrienoic acid retinamides” (Hoffmann-LA Roche Inc., priority 1999, dated 2001).
Like-named read-outs stand apart in the source and are kept apart here.

Assays:
Assay type in all cases: cell-based
MDA 231 cells = experiment: Cell growth inhibition: MTT assay, MDA 231 (ER- breast carcinoma); conditions: Homo sapiens, MDA-MB-231, read-out: % inhibition of cell growth compared to no drug control
Experimental: ER- breast carcinoma, human (MDA-231) obtained from ATCC (HTB 22), were grown in Eagle's MEM medium supplemented with non-essential amino acids, sodium pyruvate, and Earle's BSS, 10% FBS, and 13 ng/mL gentamicin. Cells were incubated at 37° C., 4.5% CO2 and 95.5% humidified air.
(§1) 1. Cell growth inhibition: MTT Assay
(§2) The compounds of formula 1 were tested for ability to inhibit cell growth using the standard MTT assay, a tetrazolium-based assay which measures the viability of cells in culture. Cells were harvested upon reaching 70-80% confluency and pelleted. The cells were then resuspended in medium in which FBS was replaced with Hyclone's Charcoal/Dextran stripped FBS, and seeded (2 mL/well) into 6-well plates (Corning) at a density allowing for linear growth over a four day assay period. Compounds of formula 1 (10 mM stock in dimethylsulfoxide (DMSO)) were added 18-24 hours post-seeding. Compound dilutions were prepared in the appropriate growth media and added to the cells for final concentrations of 10, 3.3 and 1 μM in 0.1% DMSO. At 24, 48 and 72 hr. time points, MTT (3-[4,5-dimethylthiazol-2-yl-2,5-diphenyltetrazolium bromide) stock solution (5mg/mL in 1 PBS) was added to the cells plates (625 μL/well) which were then incubated for 2.5 hours. Liquid was aspirated from the wells and 1 mL/well of 95% ethanol was added to solubilize the formazan reaction product. The plates were shaken (Bellco Mini-Orbital Shaker) for 15 minutes. The solubilized formazan was then transferred (50 μls) into a 96-well plate and the optical densities (OD) were measured (Bio-Tek Microplate Reader) at 570 nm and reference wavelength of 660 nm. Percentage of inhibition of cell growth was calculated according to the following formula: [formula]

MDA 435 cells = experiment: Cell growth inhibition: MTT assay, MDA 435 (ER- breast carcinoma); conditions: Homo sapiens, MDA435, read-out: % inhibition of cell growth compared to no drug control
Experimental: ER- breast carcinoma, human (MDA-435) obtained from Dr. Janet Price, MDA Cancer Center, Houston, Tex., were grown in Gibco's RPMI 1640 media supplemented with sodium pyruvate, 10% FBS and 13 ng/mL gentamicin. Cells were incubated at 37° C., 4.5% CO2 and 95.5% humidified air.
as §1, §2

ZR-75-1 cells = experiment: Cell growth inhibition: MTT assay, ZR-75-1 (ER+ breast carcinoma); conditions: Homo sapiens, read-out: % inhibition of cell growth compared to no drug control
Experimental: ER+ breast carcinoma, human (ZR-75-1) obtained from ATCC (CRL 1500), were grown in Gibco's RPMI 1640 media supplemented with sodium pyruvate, 10% FBS and 13 ng/mL gentamicin. Cells were incubated at 37° C., 4.5% CO2 and 95.5% humidified air.
as §1, §2

Row | Compound | inhibition at 1 µM (MDA 231 cells; 24 hours) [%] | inhibition at 3.3 µM (MDA 231 cells; 24 hours) [%] | inhibition at 10 µM (MDA 231 cells; 24 hours) [%] | inhibition at 1 µM (MDA 231 cells; 48 hours) [%] | inhibition at 3.3 µM (MDA 231 cells; 48 hours) [%] | inhibition at 10 µM (MDA 231 cells; 48 hours) [%] | inhibition at 1 µM (MDA 231 cells; 72 hours) [%] | inhibition at 3.3 µM (MDA 231 cells; 72 hours) [%] | inhibition at 10 µM (MDA 231 cells; 72 hours) [%] | inhibition at 1 µM (MDA 435 cells; 24 hours) [%] | inhibition at 3.3 µM (MDA 435 cells; 24 hours) [%] | inhibition at 10 µM (MDA 435 cells; 24 hours) [%] | inhibition at 1 µM (MDA 435 cells; 48 hours) [%] | inhibition at 3.3 µM (MDA 435 cells; 48 hours) [%] | inhibition at 10 µM (MDA 435 cells; 48 hours) [%] | inhibition at 1 µM (MDA 435 cells; 72 hours) [%] | inhibition at 3.3 µM (MDA 435 cells; 72 hours) [%] | inhibition at 10 µM (MDA 435 cells; 72 hours) [%] | also measured
1 | C/C(=C/C=C/C(C)=C/C(=O)Nc1ccc(O)cc1)c1cc(C)cc(C)c1 [N-(4-hydroxyphenyl)-(2E,4E,6Z)-7-(3,5-dimethylphenyl)-3,7-dimethyl-2,4,6-heptatrienamide] | 50 | 51 | 58 | 60 | 70 | 72 | 81 | 82 | 85 | 56 | 53 | 53 | 95 | 92 | 98 | 95 | 94 | 91 | 
2 | COc1cc(OC)cc(\C(C)=C/C=C/C(C)=C/C(=O)Nc2ccc(O)cc2)c1 [N-(4-hydroxyphenyl)-(2E,4E,6Z)-7-(3,5-dimethoxyphenyl)-3,7-dimethyl-2,4,6-heptatrienamide] | 18 | 21 | 30 | 30 | 52 | 65 | 25 | 61 | 64 | 21 | 36 | 25 | 64 | 61 | 61 | 86 | 87 | 87 | 
3 | CC(/C=C/C(C)=C/C(=O)Nc1ccc(O)cc1)=C(\C)c1cc(C(F)(F)F)cc(C(F)(F)F)c1 [N-(4-hydroxyphenyl)-(2E,4E,6Z)-7-[3,5-bis(trifluoromethyl)phenyl]-3,6,7-trimethyl-2,4,6-heptatrienamide] | 0 | 0 | 40 | 0 | 0 | 57 | 38 | 48 | 76 | 3 | 67 | 68 | 3 | 95 | 96 | 4 | 98 | 99 | inhibition at 1 µM (ZR-75-1 cells; 48 hours): 3%; inhibition at 3.3 µM (ZR-75-1 cells; 48 hours): 0%; inhibition at 10 µM (ZR-75-1 cells; 48 hours): 60%; inhibition at 1 µM (ZR-75-1 cells; 72 hours): 16%; inhibition at 3.3 µM (ZR-75-1 cells; 72 hours): 10%; inhibition at 10 µM (ZR-75-1 cells; 72 hours): 80%
4 | C/C(=C/C=C/C(C)=C/C(=O)Nc1ccc(O)cc1)c1cc(Br)cc(Br)c1 [N-(4-hydroxyphenyl)-(2E,4E,6Z)-7-(3,5-dibromophenyl)-3,7-dimethyl-2,4,6-heptatrienamide] | 6 | 65 | 65 | 72 | 81 | 82 | 78 | 86 | 87 | 27 | 28 | 37 | 70 | 66 | 70 | 86 | 88 | 87 | 
5 | CC(/C=C/C=C\c1cc(C(F)(F)F)cc(C(F)(F)F)c1)=C\C(=O)Nc1ccc(O)cc1 [N-(4-hydroxyphenyl)-(2E,4E,6Z)-7-[3,5-bis(trifluoromethyl)phenyl]-3-methyl-2,4,6-heptatrienamide] | 22 | 33 | 37 | 42 | 51 | 50 | 50 | 68 | 73 | 19 | 81 | 91 | 45 | 93 | 99 | 73 | 83 | 100 | 
6 | C/C(=C/C=C/C(C)=C/C(=O)Nc1ccc(O)cc1)c1ccccc1 [N-(4-hydroxyphenyl)-(2E,4E,6Z)-7-phenyl-3,7-dimethyl-2,4,6-heptatrienamide] | 45 | 57 | 58 | 67 | 80 | 81 | 76 | 87 | 88 | 3 | 3 | 2 | 39 | 40 | 42 | 41 | 51 | 68 | 
